The assay concerns Plasmodium berghei. The assay can be described thus: Luciferase/luciferin-expressing antifolate-resistant parasites were used to infect a culture of HepG2 cells that were pre-incubated with compounds. Infected hepatocytes emit light due to the luciferase reaction. Assay results are presented as the percent inhibition of light emission compared to control. […]. In kind it is functional. The following applies: sporozoite; for IC90: read-out: LUCIFERASE INFECTION ASSAY - IC90.

Where [1] appears, read: read-out: LUCIFERASE INFECTION ASSAY - IC50.

As to `O=C(Nc1cccc2c[nH]nc12)c1ccc([N+](=O)[O-])s1`, the IC90 (commonly the concentration at which the effect reaches the 90% level) amounted to 7.56 µM. For the same molecule, for the setting “HEPG2TOX_HILL_SLOPE 0.563, HEPG2TOX_R_SQUARED 0.653, PBLUC_HILL_SLOPE 2.36, PBLUC_R_SQUARED 0.303, read-out: LUCIFERASE INFECTION ASSAY - IC50”, the IC50 (in general, the point on the concentration scale where inhibition reaches its midpoint) was 2.98 µM.
For the molecule `CN(C)CCCOc1ccc(-c2cn3c(-c4ccc5ncccc5c4)cnc3cn2)cn1`, the IC90 was determined as 7.35 µM. Moreover, the IC50 (HEPG2TOX_HILL_SLOPE 9.84, HEPG2TOX_R_SQUARED 0.59, PBLUC_HILL_SLOPE 45.1, PBLUC_R_SQUARED 0.189, read-out: LUCIFERASE INFECTION ASSAY - IC50) is 7 µM.
For `CN1CCN(C(=O)c2cccc(-c3cnc4cnc(-c5cccc(Cl)c5)cn34)c2)CC1`, the IC90 is > 7.64 µM. Besides, the IC50 (PBLUC_HILL_SLOPE 2.84, PBLUC_R_SQUARED 0.435, read-out: LUCIFERASE INFECTION ASSAY - IC50) came to 4.45 µM.
As for `CNc1cc(Nc2cc(C)c(Oc3cccc(C(C)(C)C)c3)cc2C)ncn1`, the IC90 was determined as 8.49 µM. Also, the IC50 (FFLUC_HILL_SLOPE 11.3, FFLUC_R_SQUARED 0.0353, HEPG2TOX_HILL_SLOPE 16.8, HEPG2TOX_R_SQUARED 0.912, PBLUC_HILL_SLOPE 9.72, PBLUC_R_SQUARED 0.605, read-out: LUCIFERASE INFECTION ASSAY - IC50) was 6.77 µM.
In the case of `Cc1ccnc(NC(=O)c2ccc(C3SCCCS3)cc2)c1`, the IC90 was 1.57 µM. Further, for the setting “FFLUC_HILL_SLOPE 0.47, FFLUC_R_SQUARED 0.912, PBLUC_HILL_SLOPE 0.485, PBLUC_R_SQUARED 0.898, read-out: LUCIFERASE INFECTION ASSAY - IC50”, the IC50 was found to be 0.0169 µM.
In the case of `Cc1sc(-c2ccco2)nc1C(=O)Nn1cnc2ccccc21`, the IC90 was > 10 µM. Also, the IC50 under setting [1] was > 10 µM.
`CC(C)(C)c1cc(=O)n(-c2nc3ccc(Cl)cc3s2)[nH]1`: the IC90 is > 10.7 µM. Besides, the IC50 under setting [1] is > 10.7 µM.
Consider `CCOCCCn1c(SCC(=O)N2CCCC3CCCCC32)nc2sc(C)c(C)c2c1=O` (stereo not drawn), for which the IC90 was > 10 µM. Moreover, the IC50 (PBLUC_HILL_SLOPE 3.41, PBLUC_R_SQUARED 0.294, read-out: LUCIFERASE INFECTION ASSAY - IC50) came to 7.03 µM.
Turning to `NC(Cc1ccc(F)cc1)c1csc(NC(=O)Nc2ccc(OC(F)(F)F)cc2)n1` (stereo not drawn), the IC90 turned out to be 5.69 µM. For the same molecule, for the setting “HEPG2TOX_HILL_SLOPE 9.82, HEPG2TOX_R_SQUARED 0.883, PBLUC_HILL_SLOPE 24.7, PBLUC_R_SQUARED 0.388, read-out: LUCIFERASE INFECTION ASSAY - IC50”, the IC50 was 5.2 µM.
`CNc1snc(C)c1C(=O)OCc1nc(C(C)C)no1`: the IC90 stood at 6.24 µM. Under setting [1], the IC50 was 6.11 µM.
`NS(=O)(=O)c1ccc2c(c1)CCN2Cc1ccc(Cl)cc1`: the IC90 was > 2 µM. Also, under setting [1], the IC50 was > 2 µM.
Regarding `Cn1cc(-c2cn3c(-c4ccc5c(ccn5C)c4)cnc3cn2)cn1`, the IC90 was determined as 1.47 µM. Besides, the IC50 (HEPG2TOX_HILL_SLOPE 1.22, HEPG2TOX_R_SQUARED 0.939, PBLUC_HILL_SLOPE 1.34, PBLUC_R_SQUARED 0.885, read-out: LUCIFERASE INFECTION ASSAY - IC50) was 0.287 µM.
As for `O=C(NC1CC1)c1ccc(-c2cnc3cnc(-c4ccccc4Cl)cn23)cc1`, the IC90 was > 8.49 µM. Besides, the IC50 (HEPG2TOX_HILL_SLOPE 2.06, HEPG2TOX_R_SQUARED 0.921, PBLUC_HILL_SLOPE 2.15, PBLUC_R_SQUARED 0.563, read-out: LUCIFERASE INFECTION ASSAY - IC50) came to 4.01 µM.
Consider `CCCn1c(NC(=O)c2sc3ccccc3c2Cl)nc2ccccc21`, for which the IC90 was > 10 µM. Also, the IC50 under setting [1] is > 10 µM.
As for `Cc1ccccc1CNC(=O)c1ccc(NC(=O)c2ccco2)s1`, the IC90 was > 10 µM. The IC50 (HEPG2TOX_HILL_SLOPE 9.39, HEPG2TOX_R_SQUARED 0.787, PBLUC_HILL_SLOPE 2.67, PBLUC_R_SQUARED 0.485, read-out: LUCIFERASE INFECTION ASSAY - IC50) is 5.78 µM.
As for `CC(C)(C)c1ccc(C(=O)N/N=C/c2cc(Cl)cc(Cl)c2O)cc1`, the IC90 is > 9.03 µM. For the same molecule, the IC50 under setting [1] is > 9.03 µM.
For the molecule `COc1cc(-c2cnc3cnc(-c4cccc(NC(C)=O)c4)cn23)cc(OC)c1OC`, the IC90 is > 7.89 µM. In addition, the IC50 under setting [1] amounted to 3.93 µM.
`CC1CCCCC1NC(=O)/C(C#N)=C/c1ccc(OC(F)F)cc1OC(F)F` (stereo not drawn): the IC90 is > 10 µM. In addition, under setting [1], the IC50 was > 10 µM.
For the molecule `NC(=O)C(C(=O)/C=C/c1ccc(Cl)cc1)=C1SCS1`, the IC90 was 4.75 µM. Besides, under “PBLUC_HILL_SLOPE 78.5, PBLUC_R_SQUARED 0.479, read-out: LUCIFERASE INFECTION ASSAY - IC50”, the IC50 was found to be 4.62 µM.
Consider `CCOC(=O)c1cc(C#N)c(N2CCN(S(=O)(=O)c3ccccc3Cl)CC2)nc1C(F)(F)F`, for which the IC90 is > 6.56 µM. The IC50 under setting [1] is > 6.56 µM.
Turning to `O=C1C=CC(=O)N1c1cccc(N2C(=O)C=CC2=O)c1`, the IC90 is > 12.3 µM. Also, where the note is “PBLUC_HILL_SLOPE 9.05, PBLUC_R_SQUARED 0.121, read-out: LUCIFERASE INFECTION ASSAY - IC50”, the IC50 came to 11.2 µM.
As to `CC1CCc2sc(-c3nnc(SCC(=O)Nc4sccc4C(N)=O)o3)cc2C1` (stereo not drawn), the IC90 was determined as 9.89 µM. In addition, the IC50 (PBLUC_HILL_SLOPE 4.8, PBLUC_R_SQUARED 0.154, read-out: LUCIFERASE INFECTION ASSAY - IC50) turned out to be 6.26 µM.
As for `O=C(Nc1cccc(C(F)(F)F)c1)Nc1ccc2nc(-c3ccc(F)c(Cl)c3)nn2c1`, the IC90 was 5.2 µM. Further, the IC50 (PBLUC_HILL_SLOPE 7.54, PBLUC_R_SQUARED 0.257, read-out: LUCIFERASE INFECTION ASSAY - IC50) stood at 3.88 µM.
Turning to `C=CCN(c1ccccc1OC)S(=O)(=O)c1cccc(C(=O)Oc2c(Cl)cc(Cl)c3ccc(C)nc23)c1`, the IC90 came to 6.11 µM. For the same molecule, the IC50 (PBLUC_HILL_SLOPE 68.6, PBLUC_R_SQUARED 0.538, read-out: LUCIFERASE INFECTION ASSAY - IC50) is 5.92 µM.
Turning to `O=C(Nc1cccc(C#Cc2ccccc2)c1)c1ccoc1`, the IC90 was > 10 µM. Also, the IC50 under setting [1] was > 10 µM.
For `O=C(/C=C/C1=C(N2CCOCC2)C(=C\c2ccc(Cl)cc2)/CC1)C(F)(F)F`, the IC90 was > 10 µM. Moreover, the IC50 under setting [1] is > 10 µM.
Regarding `COc1cccc(Nc2nccc3nc(-c4cccc(C)c4)[nH]c23)c1`, the IC90 is > 10 µM. Moreover, under “PBLUC_HILL_SLOPE 2.7, PBLUC_R_SQUARED 0.647, read-out: LUCIFERASE INFECTION ASSAY - IC50”, the IC50 was 6.02 µM.
Turning to `Cc1ccc2nc(NC(=O)C(C)Oc3ccccc3)c(C(=O)NC3CCCC3)n2c1` (stereo not drawn), the IC90 was found to be 6.95 µM. The IC50 (PBLUC_HILL_SLOPE 4.38, PBLUC_R_SQUARED 0.362, read-out: LUCIFERASE INFECTION ASSAY - IC50) turned out to be 4.21 µM.
For the molecule `Cc1sc2nc(-c3cccnc3)nc(NCC(c3ccco3)N(C)C)c2c1C` (stereo not drawn), the IC90 was > 10 µM. For the same molecule, the IC50 under setting [1] is > 10 µM.
For the molecule `N#C/C(=C\N1CCN(Cc2ccccc2)CC1)S(=O)(=O)c1ccccn1`, the IC90 was > 8.96 µM. For the same molecule, under “FFLUC_HILL_SLOPE 0.433, FFLUC_R_SQUARED 0.0165, read-out: LUCIFERASE INFECTION ASSAY - IC50”, the IC50 is > 8.96 µM.
Consider `O=S(=O)(Nc1ccc(Oc2cc(C(F)(F)F)cc(C(F)(F)F)c2)cc1)c1cc(C(F)(F)F)cc(C(F)(F)F)c1`, for which the IC90 was determined as 3.81 µM. Besides, the IC50 (FFLUC_HILL_SLOPE 18.8, FFLUC_R_SQUARED 0.264, HEPG2TOX_HILL_SLOPE 15.6, HEPG2TOX_R_SQUARED 0.875, PBLUC_HILL_SLOPE 191, PBLUC_R_SQUARED 0.155, read-out: LUCIFERASE INFECTION ASSAY - IC50) turned out to be 3.76 µM.
In the case of `Cc1cc(C=C2Sc3ccc4ccccc4c3N2C)cc(C)[n+]1Cc1cccnc1`, the IC90 is > 10 µM. Under setting [1], the IC50 was > 10 µM.
Regarding `Cc1onc(-c2c(Cl)cccc2Cl)c1C(=O)Nc1ccccc1C(=O)NCc1c(F)cccc1Cl`, the IC90 was > 6.19 µM. The IC50 under setting [1] was > 6.19 µM.
Take `O=C(NCc1ccc(Oc2ccc(F)cc2)cc1)C1Cc2ccccc2O1` (stereo not drawn): the IC90 is 3.84 µM. Further, the IC50 (HEPG2TOX_HILL_SLOPE 1.58, HEPG2TOX_R_SQUARED 0.911, PBLUC_HILL_SLOPE 12.2, PBLUC_R_SQUARED 0.351, read-out: LUCIFERASE INFECTION ASSAY - IC50) was found to be 3.21 µM.
Take `CCCn1c(NC(=O)Cc2coc3cc(OC)ccc23)nc2ccccc21`: the IC90 amounted to 1.31 µM. Further, the IC50 (FFLUC_HILL_SLOPE 16.7, FFLUC_R_SQUARED 0.137, HEPG2TOX_HILL_SLOPE 1.66, HEPG2TOX_R_SQUARED 0.728, PBLUC_HILL_SLOPE 12.1, PBLUC_R_SQUARED 0.477, read-out: LUCIFERASE INFECTION ASSAY - IC50) was 1.09 µM.
For the molecule `COc1ccc2cc(CN(C)CC(=O)Nc3sccc3C(N)=O)ccc2c1`, the IC90 worked out at 4.94 µM. The IC50 (HEPG2TOX_HILL_SLOPE 0.237, HEPG2TOX_R_SQUARED 0.621, PBLUC_HILL_SLOPE 9.54, PBLUC_R_SQUARED 0.647, read-out: LUCIFERASE INFECTION ASSAY - IC50) was 3.92 µM.
`CC(NC(=O)Cc1ccc(-c2ccccc2)cc1)c1cccs1` (stereo not drawn): the IC90 worked out at 9.4 µM. In addition, the IC50 (HEPG2TOX_HILL_SLOPE 1.66, HEPG2TOX_R_SQUARED 0.927, PBLUC_HILL_SLOPE 1.26, PBLUC_R_SQUARED 0.823, read-out: LUCIFERASE INFECTION ASSAY - IC50) turned out to be 1.64 µM.
For `N#Cc1ccsc1NC(=O)c1ccc(Cl)c([N+](=O)[O-])c1`, the IC90 was > 10 µM. Further, the IC50 under setting [1] is > 10 µM.
Regarding `Cc1nc(C2CC2)nc(SC(C)C)c1C#N`, the IC90 was > 10 µM. In addition, for the setting “HEPG2TOX_HILL_SLOPE 17, HEPG2TOX_R_SQUARED 0.522, PBLUC_HILL_SLOPE 1.64, PBLUC_R_SQUARED 0.538, read-out: LUCIFERASE INFECTION ASSAY - IC50”, the IC50 is 5.26 µM.

The values are drawn from ChEMBL document CHEMBL4483862, “Open-source discovery of chemical leads for next-generation chemoprotective antimalarials” (2018).
